Test results: EPA's ToxRefDB 2

Experiments:
[1] = tested on: rat; settings: Combined chronic toxicity/carcinogenicity, wistar, Oral, Feed, dose end: 104 week, group: systemic
[2] = tested on: rat; settings: Multigenerational reproductive toxicity study, wistar, Oral, Feed, dose end: 3 generation
[3] = tested on: dog; settings: Subchronic oral toxicity in nonrodent, beagle, Capsule, dose end: 6 month, group: systemic, systemic / organ weight / liver / relative to body weight
[4] = tested on: mouse; settings: Carcinogenicity, cd1, Oral, Feed, dose end: 100 week, group: systemic
[5] = tested on: rat; settings: Prenatal developmental toxicity study, wistar, Oral, Gavage/Intubation, dose end: 16 GD
[6] = tested on: mouse; settings: Carcinogenicity; cd1; Oral; Feed; dose end: 24 month; group: systemic; systemic / in life observation / clinical signs / anogenital staining + systemic / in life observation / clinical signs / distended abdomens…
[7] = tested on: dog; settings: Chronic toxicity; beagle; Oral; Capsule; dose end: 52 week; group: systemic; systemic / clinical chemistry / alkaline phosphatase (alp/alk) / alkaline phosphatase (alp/alk) + systemic / organ weight / liver / nos + …
[8] = tested on: rat; settings: Combined chronic toxicity/carcinogenicity, wistar, Oral, Feed, dose end: 2 year, group: systemic
[9] = tested on: mouse; settings: Carcinogenicity, other, Oral, Feed, dose end: 98 week, group: systemic
[10] = tested on: rabbit; settings: Prenatal developmental toxicity study, dutch, Oral, Gavage/Intubation, dose end: 18 GD
[11] = tested on: rat; settings: Multigenerational reproductive toxicity study, Oral, Feed, dose end: 3 generation, group: offspring
[12] = tested on: rat; settings: Subchronic oral toxicity in rodents, sprague dawley, Gavage/Intubation, dose end: 13 week, group: systemic
[13] = tested on: rat; settings: Combined chronic toxicity/carcinogenicity, sprague dawley, Oral, Feed, dose end: 24 month, group: systemic
[14] = tested on: dog; settings: Chronic toxicity, beagle, Oral, Feed, dose end: 24 month, group: systemic
[15] = tested on: mouse; settings: Carcinogenicity, cd1, Oral, Feed, dose end: 104 week, group: systemic
[16] = systemic / in life observation / clinical signs / tremors + systemic / hematology / platelet / platelet + systemic / organ weight / kidney…
[17] = group: offspring, systemic / pathology microscopic / liver / hypertrophy
[18] = group: parental, systemic / in life observation / clinical signs / tremors
[19] = systemic / organ weight / liver / absolute
[20] = systemic / pathology gross / liver / mass + systemic / pathology gross / lung / mass + systemic / pathology microscopic / liver / …
[21] = group: developmental, developmental / developmental malformation / bone / short supernumerary + systemic / in life observation / body weight / fetal weight
[22] = group: maternal, systemic / in life observation / body weight / body weight gain + systemic / in life observation / clinical signs / headflicking + systemic…
[23] = systemic / organ weight / kidney / nos + systemic / organ weight / liver / nos + systemic / clinical chemistry / aminopyrine-n-demethylase…
[24] = systemic / hematology / platelet / platelet + systemic / organ weight / liver / relative to body weight + systemic / hematology / leukocyte…
[25] = systemic / organ weight / kidney / absolute + systemic / organ weight / kidney / relative to body weight
[26] = group: developmental, developmental / developmental malformation / bone / incomplete ossification + systemic / in life observation / body weight / fetal weight
[27] = group: maternal, systemic / in life observation / body weight / body weight gain
[28] = group: maternal, systemic / in life observation / body weight / body weight gain + systemic / in life observation / body weight / body weight
[29] = systemic / in life observation / body weight / offspring (pup) weight + systemic / in life observation / food consumption / food consumption
[30] = systemic / organ weight / heart / nos + systemic / organ weight / heart / relative to body weight
[31] = systemic / organ weight / heart / nos + systemic / organ weight / heart / relative to body weight + systemic / hematology / erythrocyte (rbc…
[32] = systemic / pathology microscopic / liver / eosinophilic focus
[33] = systemic / organ weight / thyroid gland / relative to body weight
[34] = systemic / organ weight / thyroid gland / relative to body weight + systemic / organ weight / liver / relative to body weight
[35] = systemic / pathology microscopic / liver / adenoma + systemic / pathology microscopic / liver / adenoma/carcinoma combined + systemic / …

CC1(C)C(C=C(Cl)Cl)C1C(=O)OCc1cccc(Oc2ccccc2)c1 (configuration not stated) [Permethrin]
LEL ([1]; systemic / hematology / platelet / platelet + systemic / pathology microscopic / liver / hypertrophy + systemic / pathology microscopic / …): 50 mg/kg/day
LOAEL ([1]; systemic / in life observation / clinical signs / tremors): 250 mg/kg/day
NEL [1, 16]: 10 mg/kg/day
NOAEL [1, 16]: 50 mg/kg/day
LEL [2, 17]: 25 mg/kg/day
LOAEL [2, 17]: > 125 mg/kg/day
NEL [2, 17]: < 25 mg/kg/day
NOAEL [2, 17]: ≥ 125 mg/kg/day
LEL [2, 18]: 125 mg/kg/day
LOAEL [2, 18]: 125 mg/kg/day
NEL [2, 18]: 50 mg/kg/day
NOAEL [2, 18]: 50 mg/kg/day
LEL [3]: 50 mg/kg/day
LOAEL [3]: > 250 mg/kg/day
NEL [3]: 10 mg/kg/day
NOAEL [3]: ≥ 250 mg/kg/day
LOAEL [4, 19]: 807 mg/kg/day
NOAEL [4, 19]: < 807 mg/kg/day
LEL [4, 20]: 780 mg/kg/day
NEL [4, 20]: < 780 mg/kg/day
LEL [5, 21]: 150 mg/kg/day
LOAEL [5, 21]: 150 mg/kg/day
NEL [5, 21]: 50 mg/kg/day
NOAEL [5, 21]: 50 mg/kg/day
LEL [5, 22]: 150 mg/kg/day
LOAEL [5, 22]: 150 mg/kg/day
NEL [5, 22]: 50 mg/kg/day
NOAEL [5, 22]: 50 mg/kg/day
LEL [6]: 3 mg/kg/day
LOAEL [6]: > 714 mg/kg/day
NEL [6]: < 3 mg/kg/day
NOAEL [6]: ≥ 714 mg/kg/day
LEL [7]: 100 mg/kg/day
LOAEL [7]: 100 mg/kg/day
NEL [7]: 5 mg/kg/day
NOAEL [7]: 5 mg/kg/day
LOAEL ([8]; systemic / in life observation / clinical signs / hypersensitivity + systemic / in life observation / clinical signs / tremors): 91.5 mg/kg/day
NOAEL ([8]; systemic / in life observation / clinical signs / hypersensitivity + systemic / in life observation / clinical signs / tremors + systemic / …): 36.9 mg/kg/day
LEL [8, 23]: 19.4 mg/kg/day
NEL [8, 23]: < 19.4 mg/kg/day
LOAEL [9, 24]: > 287 mg/kg/day
NOAEL [9, 24]: ≥ 287 mg/kg/day
LEL [9, 25]: 26.9 mg/kg/day
NEL [9, 25]: < 26.9 mg/kg/day
LOAEL ([10]; group: developmental, developmental / developmental malformation / bone / incomplete ossification): 1200 mg/kg/day
LEL [10, 26]: 1200 mg/kg/day
NEL [10, 26]: 600 mg/kg/day
NOAEL [10, 26]: 600 mg/kg/day
LOAEL [10, 27]: 600 mg/kg/day
NOAEL [10, 27]: < 600 mg/kg/day
LEL [10, 28]: 600 mg/kg/day
NEL [10, 28]: < 600 mg/kg/day

CCCCCCCCCc1ccc(OP(Oc2ccc(CCCCCCCCC)cc2)Oc2ccc(CCCCCCCCC)cc2)cc1 [Phenol, nonyl-, phosphite (3:1)]
LOAEL [11, 29]: > 500 mg/kg/day
NEL [11, 29]: 50 mg/kg/day
NOAEL [11, 29]: ≥ 500 mg/kg/day
LEL ([11]; systemic / in life observation / food consumption / food consumption): 167 mg/kg/day

O=C([O-])CF.[Na+] [Sodium fluoroacetate]
NEL [12, 30]: 0.05 mg/kg/day
NOAEL [12, 30]: 0.05 mg/kg/day
LEL [12, 31]: 0.2 mg/kg/day
LOAEL [12, 31]: 0.2 mg/kg/day

Cc1[nH]c(=O)n(C(C)(C)C)c(=O)c1Cl [Terbacil]
LOAEL ([13]; systemic / organ weight / liver / absolute + systemic / organ weight / liver / relative to body weight + systemic / in life observation / …): 83 mg/kg/day
NOAEL ([13]; systemic / organ weight / liver / absolute + systemic / organ weight / liver / relative to body weight + systemic / pathology microscopic / …): 1.4 mg/kg/day
LEL [13, 32]: 0.9 mg/kg/day
NEL [13, 32]: < 0.9 mg/kg/day
LEL [14, 33]: 6.25 mg/kg/day
LOAEL [14, 33]: 6.25 mg/kg/day
NEL [14, 34]: 1.25 mg/kg/day
NOAEL [14, 34]: 1.25 mg/kg/day
LEL [15, 35]: 7.2 mg/kg/day
NEL [15, 35]: < 7.2 mg/kg/day
LOAEL ([15]; systemic / pathology microscopic / liver / hyperplastic nodule (pre-neoplastic)): 1070 mg/kg/day
NOAEL ([15]; systemic / pathology microscopic / liver / hyperplastic nodule (pre-neoplastic) + systemic / pathology microscopic / liver / adenoma + …): 179 mg/kg/day
